How the values were obtained:
[1] = target: T1, Sodium-dependent serotonin transporter (Rattus norvegicus, UniProt P31652); experiment: Effect on synaptosomal uptake inhibition of 5-hydroxytryptamine (5-HT); assay type: functional
Mus musculus [2] = species on record: Mus musculus; experiment: Compound was assessed for thymoleptic activity by its ability to antagonize tetrabenazine ptosis in mice; assay type: functional
[3] = target: Norepinephrine transporter (Rattus norvegicus, UniProt Q9WTR4)
Description: (§1) Effect on synaptosomal uptake inhibition of Noradrenaline (NA)

Rattus norvegicus [4] = experiment: Tested orally in rats for antagonism of stereotypies induced by amphetamine; assay type: functional; details: Rattus norvegicus, po; read-out: ED50
[5] = target: T1, Sodium-dependent serotonin transporter
[6] = target: Sodium-dependent dopamine transporter (Rattus norvegicus, UniProt P23977)
Description: Effect on synaptosomal uptake inhibition of Dopamine transporter

Mus musculus [7] = species on record: Mus musculus
Description: (§2) Compound (administered intraperitoneally) was assessed for neuroleptic activity to antagonize methyl phenidate induced stereotypes in mice

Adrenergic receptor beta = Adrenergic receptor beta (Rattus norvegicus, UniProt P18090+P10608+P26255)
Description: as §1

Rattus norvegicus [8] = species on record: Rattus norvegicus
Description: (§3) Ability to induce catalepsy in rats perorally, an effect normally related to clinical extrapyramidal side effects

Rattus norvegicus [9] = species on record: Rattus norvegicus; experiment: animal or person; details: po
Description: as §3

Rattus norvegicus [10] = experiment: Compound was tested orally (po) in rats for antagonism of stereotypies induced by amphetamine; value ranges from 2.5-4.7; assay type: functional
Rattus norvegicus [11] = experiment: Compound was tested orally (po) in rats for its ability to induce catalepsy, an effect normally related to clinical extrapyramidal side effects;value ranges from 1.3-3.4; assay type: functional
Mus musculus [12] = species on record: Mus musculus; experiment: animal or person; details: ip
Description: as §2

T1 sequence (P31652 whole entry): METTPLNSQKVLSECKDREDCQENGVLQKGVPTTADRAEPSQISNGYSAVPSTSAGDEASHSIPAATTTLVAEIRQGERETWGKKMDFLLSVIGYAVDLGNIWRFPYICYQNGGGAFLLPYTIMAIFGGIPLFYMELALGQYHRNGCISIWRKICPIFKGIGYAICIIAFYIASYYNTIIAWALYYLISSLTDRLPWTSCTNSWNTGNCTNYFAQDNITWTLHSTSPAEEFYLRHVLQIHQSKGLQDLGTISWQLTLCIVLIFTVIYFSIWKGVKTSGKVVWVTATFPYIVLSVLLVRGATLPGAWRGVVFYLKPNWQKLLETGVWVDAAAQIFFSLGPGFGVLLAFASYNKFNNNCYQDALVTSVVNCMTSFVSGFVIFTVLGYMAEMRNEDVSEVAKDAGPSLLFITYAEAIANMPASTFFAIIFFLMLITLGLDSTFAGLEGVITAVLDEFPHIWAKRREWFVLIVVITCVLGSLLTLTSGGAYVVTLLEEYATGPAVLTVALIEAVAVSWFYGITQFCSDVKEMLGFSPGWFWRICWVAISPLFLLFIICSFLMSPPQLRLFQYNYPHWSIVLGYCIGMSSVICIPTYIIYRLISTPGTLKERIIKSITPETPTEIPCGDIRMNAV
Chain of Sodium-dependent dopamine transporter (P23977 whole entry): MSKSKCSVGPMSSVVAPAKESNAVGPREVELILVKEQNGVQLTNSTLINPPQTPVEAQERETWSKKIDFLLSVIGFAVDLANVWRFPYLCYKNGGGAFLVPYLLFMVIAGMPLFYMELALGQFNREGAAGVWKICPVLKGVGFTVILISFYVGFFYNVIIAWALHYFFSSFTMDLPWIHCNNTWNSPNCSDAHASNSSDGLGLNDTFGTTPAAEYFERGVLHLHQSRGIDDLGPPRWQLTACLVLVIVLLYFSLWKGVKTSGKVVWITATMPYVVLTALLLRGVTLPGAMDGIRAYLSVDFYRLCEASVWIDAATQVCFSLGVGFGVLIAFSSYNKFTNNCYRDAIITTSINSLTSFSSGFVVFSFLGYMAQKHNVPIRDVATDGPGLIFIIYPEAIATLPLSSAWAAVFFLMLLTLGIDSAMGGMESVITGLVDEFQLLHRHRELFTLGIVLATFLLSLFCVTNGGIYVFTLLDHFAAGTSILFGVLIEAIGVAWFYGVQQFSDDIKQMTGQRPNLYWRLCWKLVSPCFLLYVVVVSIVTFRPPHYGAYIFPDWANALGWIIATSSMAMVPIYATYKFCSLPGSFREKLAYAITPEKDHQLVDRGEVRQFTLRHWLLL
Chain of Norepinephrine transporter (Q9WTR4 whole entry): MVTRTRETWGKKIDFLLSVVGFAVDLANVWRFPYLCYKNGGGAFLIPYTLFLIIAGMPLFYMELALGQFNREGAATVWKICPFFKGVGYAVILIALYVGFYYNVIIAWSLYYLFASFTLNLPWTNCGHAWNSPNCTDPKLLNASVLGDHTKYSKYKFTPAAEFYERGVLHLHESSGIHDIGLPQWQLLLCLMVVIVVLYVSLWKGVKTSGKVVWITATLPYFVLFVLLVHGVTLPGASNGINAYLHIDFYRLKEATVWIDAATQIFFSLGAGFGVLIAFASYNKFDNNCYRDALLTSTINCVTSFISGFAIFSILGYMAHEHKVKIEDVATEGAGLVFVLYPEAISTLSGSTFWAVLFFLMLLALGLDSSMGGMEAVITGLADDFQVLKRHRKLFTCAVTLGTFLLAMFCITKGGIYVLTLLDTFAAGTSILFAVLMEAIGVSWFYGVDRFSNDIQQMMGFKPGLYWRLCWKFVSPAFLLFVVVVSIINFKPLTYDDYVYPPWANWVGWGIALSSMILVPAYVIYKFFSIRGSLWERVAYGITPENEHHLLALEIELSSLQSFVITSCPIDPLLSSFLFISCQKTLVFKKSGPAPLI
Description for Dopamine receptor: Effect on synaptosomal uptake inhibition of Dopamine receptor

Compound	IC50 [1]	ED50 (Mus musculus [2])	IC50 [3]	ED50 (Rattus norvegicus [4])	IC50 [5]	IC50 [6]	ED50 (Mus musculus [7])	IC50 (Adrenergic receptor beta)	further results
CN(C)C[C@@H]1C2CCC(CC2)[C@@H]1c1ccc(Cl)c(Cl)c1 (relative stereo)	51 nM	43 µmol/kg	5.4 nM	–	–	–	–	–	–
CN1CCN(C2CC(c3ccc(Cl)c(Cl)c3)c3ccccc32)CC1.Cl.Cl (single isomer, unassigned; 98)	2300 nM	> 89 µmol/kg	910 nM	–	–	–	–	–	IC50 (Dopamine receptor): 1700 nM
OCCN1CCN(C2CC(c3ccc(F)cc3)c3ccc(C(F)(F)F)cc32)CC1 (trans isomer)	–	–	–	0.22 µmol/kg	7000 nM	520 nM	0.07 µM/kg	660 nM	ED50 (Rattus norvegicus [8]): 0.27 µM/kg
Cl.Cl.OCCCCN1CCN(C2CC(c3ccc(F)cc3)c3ccc(F)cc32)CC1 (cis isomer)	–	–	–	–	1900 nM	9 nM	54 µM/kg	30 nM	–
Cl.Cl.OCCCCN1CCN(C2CC(c3ccc(F)cc3)c3ccc(F)cc32)CC1 (trans isomer)	–	–	–	7.7 µmol/kg	610 nM	25 nM	6.5 µM/kg	19 nM	ED50 (Rattus norvegicus [9]): 47 µmol/kg
OCCN1CCN(CC/C=C2/c3ccccc3Sc3ccc(C(F)(F)F)cc32)CC1 [Z-FLUPENTIXOL]	–	–	–	–	–	–	–	–	ED50 (Rattus norvegicus [10]): 3.5 µmol/kg; ED50 (Rattus norvegicus [11]): 2.1 µmol/kg; ED50 (Mus musculus [12]): 0.14 µmol/kg

Source: ChEMBL document CHEMBL1122477, “Neuroleptic activity and dopamine-uptake inhibition in 1-piperazino-3-phenylindans” (J Med Chem, 1983)
